Laboratory results: publication PMC3973950, “Synthesis of 5-arylidine amino-1,3,4-thiadiazol-2-[(N-substituted benzyol)]sulphonamides endowed with potent antioxidants and anticancer activity induces growth inhibition in HEK293, BT474 and NCI-H226 cells” (Medicinal Chemistry Research, 2013)

Assays:
[1] = In vitro cytotoxicity by MTT assay, NCI-H226; format: cell-based; conditions: human, NCI-H226 lung cancer cells, 0.015 μM, read-out: % Cytotoxicity (100 − % cell survival) of NCI-H226 cell line
Description: (§1) The cancer cell line cultures of HEK 293 ([…]), BT474 (breast cancer cell line) and NCI-H226 (lung cancer) were obtained from Pasteur Institute of India, Coonoor, India, and were cultured in RPMI-1640 and 10 % heat-[…] New born calf serum with antibiotics [penicillin ([…]), streptomycin (100 μg/mL) and amphotericin B (25 μg/mL)]. The cells were maintained at 37 °C in a humidified atmosphere with 5 % CO2 and were subcultured twice a week.
(§2) The monolayer cell culture (100 μL) was trypsinized, and the cell count was adjusted to […] using medium containing 10 % new born calf serum. To each well of the 96-well microtitre plate, the diluted cell suspension (approximately 10,000 cells) (0.1 mL) was added and kept for 24 h in incubator at 37 °C in 5 % CO2 atmosphere for cell monolayer formation. After 24 h, when a partial monolayer was formed at the bottom of the well, the supernatant was flicked off, the monolayer was washed once, and different drugs, i.e. synthesized compounds (100 μL), were added to the cells in microtitre plates. The plates were then incubated at 37 °C for 3 days in 5 % CO2 atmosphere, and microscopic examination was carried out and observations recorded every 24 h. After 72 h, the sample solution in the wells was flicked off; MTT dye ([…]) was added to each well; plates were gently shaken and incubated for 4 h at 37 °C in 5 % CO2 incubator. The supernatant was removed and propanol (50 μL) was added; the plates were gently shaken to solubilize the formed formazan. The absorbance was measured using a microplate reader at a wavelength of 490 nm (Edmondson et al., [1988]; Prasad et al., [2005]; Chiruvella et al., [2008]; Chang et al., [2007]).

[2] = tested on: NCI-H226 (lung cancer cell line); test: In vitro cytotoxicity by MTT assay, NCI-H226; format: cell-based; conditions: Homo sapiens, 72 h, read-out: % Cytotoxicity (100 − % cell survival) of NCI-H226 cell line; for cytotoxicity at 0.005 µM: NCI-H226, 0.005 μM; for cytotoxicity at 0.045 µM: NCI-H226, 0.045 μM; for cytotoxicity at 0.13 µM: NCI-H226, 0.13 μM; for cytotoxicity at 0.41 µM: NCI-H226, 0.41 μM; for cytotoxicity at 1.23 µM: NCI-H226, 1.23 μM; for cytotoxicity at 3.7 µM: NCI-H226, 3.7 μM; for cytotoxicity at 11.11 µM: NCI-H226, 11.11 μM; for cytotoxicity at 33.33 µM: NCI-H226, 33.33 μM; for cytotoxicity at 100 µM: NCI-H226, 100 μM
Description: as §1, §2

[3] = tested on: BT474 (breast cancer cell line); test: In vitro cytotoxicity by MTT assay, BT474; format: cell-based; conditions: Homo sapiens, 72 h, read-out: % cytotoxicity (100 − % cell survival) of BT474 cell line; for cytotoxicity at 0.005 µM: BT-474, 0.005 μM; for cytotoxicity at 0.015 µM: BT-474, 0.015 μM; for cytotoxicity at 0.045 µM: BT-474, 0.045 μM; for cytotoxicity at 0.13 µM: BT-474, 0.13 μM; for cytotoxicity at 0.41 µM: BT-474, 0.41 μM; for cytotoxicity at 1.23 µM: BT-474, 1.23 μM; for cytotoxicity at 3.7 µM: BT-474, 3.7 μM; for cytotoxicity at 11.11 µM: BT-474, 11.11 μM; for cytotoxicity at 33.33 µM: BT-474, 33.33 μM; for cytotoxicity at 100 µM: BT-474, 100 μM
Description: as §1, §2

[4] = In vitro cytotoxicity by MTT assay, HEK 293; format: cell-based, human; conditions: human, HEK 293 cells, read-out: % cytotoxicity (100 − % cell survival) of HEK 293 cell line
Description: as §1, §2

SMILES	cytotoxicity at 72 h, 0.015 µM [1] [%]	cytotoxicity at 0.005 µM [2] [%]	cytotoxicity at 0.045 µM [2] [%]	cytotoxicity at 0.13 µM [2] [%]	cytotoxicity at 0.41 µM [2] [%]	cytotoxicity at 1.23 µM [2] [%]	cytotoxicity at 3.7 µM [2] [%]	cytotoxicity at 11.11 µM [2] [%]	cytotoxicity at 33.33 µM [2] [%]	cytotoxicity at 100 µM [2] [%]	cytotoxicity at 0.005 µM [3] [%]	cytotoxicity at 0.015 µM [3] [%]	cytotoxicity at 0.045 µM [3] [%]	cytotoxicity at 0.13 µM [3] [%]	cytotoxicity at 0.41 µM [3] [%]	cytotoxicity at 1.23 µM [3] [%]	cytotoxicity at 3.7 µM [3] [%]	cytotoxicity at 11.11 µM [3] [%]	cytotoxicity at 33.33 µM [3] [%]	cytotoxicity at 100 µM [3] [%]	further results
CC(=O)Nc1ccc(S(=O)(=O)Nc2nnc(S(=O)(=O)NC(=O)c3ccc(Cl)cc3)s2)cc1 [Compound 6g]	35	33.5	36.8	37.3	39.8	40.6	41.3	42.6	43.2	46	30.5	32.8	33.9	34.1	37.6	38.2	39.5	42.4	44.2	46.4	cytotoxicity at 72 h, 0.005 µM [4]: 15.1%; cytotoxicity at 72 h, 0.015 µM [4]: 16.5%; cytotoxicity at 72 h, 0.045 µM [4]: 18%; cytotoxicity at 72 h, 0.13 µM [4]: 18.3%; cytotoxicity at 72 h, 0.41 µM [4]: 20.1%; cytotoxicity at 72 h, 1.23 µM [4]: 20.8%; cytotoxicity at 72 h, 3.7 µM [4]: 24.2%; cytotoxicity at 72 h, 11.11 µM [4]: 26.1%; cytotoxicity at 72 h, 33.33 µM [4]: 28.7%; cytotoxicity at 72 h, 100 µM [4]: 32%
CC(=O)Nc1ccc(S(=O)(=O)Nc2nnc(S(=O)(=O)NC(=O)c3ccccc3O)s2)cc1 [Compound 6d]	36.4	35.5	37	39.1	41.2	42	43.4	45.3	47.3	49.1	26.3	27.7	28.9	29.4	30.6	31	32.1	32.9	33.3	33.9	cytotoxicity at 72 h, 0.005 µM [4]: 33.3%; cytotoxicity at 72 h, 0.015 µM [4]: 34.8%; cytotoxicity at 72 h, 0.045 µM [4]: 35.1%; cytotoxicity at 72 h, 0.13 µM [4]: 35.9%; cytotoxicity at 72 h, 0.41 µM [4]: 36.7%; cytotoxicity at 72 h, 1.23 µM [4]: 37.2%; cytotoxicity at 72 h, 3.7 µM [4]: 38.4%; cytotoxicity at 72 h, 11.11 µM [4]: 39.3%; cytotoxicity at 72 h, 33.33 µM [4]: 40.7%; cytotoxicity at 72 h, 100 µM [4]: 41.3%
Nc1ccc(S(=O)(=O)Nc2nnc(S(=O)(=O)NC(=O)c3ccccc3)s2)cc1 [Compound 7a]	28.4	27.4	29.2	29.4	30.4	32.2	34.5	35.1	36.2	36.9	34.1	35	36.7	37.8	38.2	39.5	40.7	41.8	43.7	46.3	cytotoxicity at 72 h, 0.005 µM [4]: 23.7%; cytotoxicity at 72 h, 0.015 µM [4]: 25.8%; cytotoxicity at 72 h, 0.045 µM [4]: 26.4%; cytotoxicity at 72 h, 0.13 µM [4]: 28.6%; cytotoxicity at 72 h, 0.41 µM [4]: 30.2%; cytotoxicity at 72 h, 1.23 µM [4]: 32.5%; cytotoxicity at 72 h, 3.7 µM [4]: 32.5%; cytotoxicity at 72 h, 11.11 µM [4]: 33.5%; cytotoxicity at 72 h, 33.33 µM [4]: 34.1%; cytotoxicity at 72 h, 100 µM [4]: 35.7%
Nc1ccc(S(=O)(=O)Nc2nnc(S(=O)(=O)NC(=O)c3ccc([N+](=O)[O-])cc3)s2)cc1 [Compound 7e]	30	29	30.5	31.8	33.5	34.5	34.9	35.5	35.8	36	43.9	44.2	45.4	46.3	47.1	47.6	48.5	49.1	50.4	51.2	cytotoxicity at 72 h, 0.005 µM [4]: 26.9%; cytotoxicity at 72 h, 0.015 µM [4]: 29%; cytotoxicity at 72 h, 0.045 µM [4]: 30.2%; cytotoxicity at 72 h, 0.13 µM [4]: 32.1%; cytotoxicity at 72 h, 0.41 µM [4]: 34.7%; cytotoxicity at 72 h, 1.23 µM [4]: 35.5%; cytotoxicity at 72 h, 3.7 µM [4]: 36.4%; cytotoxicity at 72 h, 11.11 µM [4]: 38.1%; cytotoxicity at 72 h, 33.33 µM [4]: 38.8%; cytotoxicity at 72 h, 100 µM [4]: 39.8%
Nc1ccc(C(=O)NS(=O)(=O)c2nnc(NS(=O)(=O)c3ccc(N)cc3)s2)cc1 [Compound 7c]	34	33.2	34.8	36.6	37.8	38	38.2	38.6	38.9	40.3	18.8	19.4	19.8	20.1	21	22.8	24.2	25.7	26.4	27.9	cytotoxicity at 72 h, 0.005 µM [4]: 36.5%; cytotoxicity at 72 h, 0.015 µM [4]: 38.2%; cytotoxicity at 72 h, 0.045 µM [4]: 40.6%; cytotoxicity at 72 h, 0.13 µM [4]: 42.7%; cytotoxicity at 72 h, 0.41 µM [4]: 43.4%; cytotoxicity at 72 h, 1.23 µM [4]: 45.3%; cytotoxicity at 72 h, 3.7 µM [4]: 47.1%; cytotoxicity at 72 h, 11.11 µM [4]: 49.1%; cytotoxicity at 72 h, 33.33 µM [4]: 49.2%; cytotoxicity at 72 h, 100 µM [4]: 49.9%
